Reference: the supplement of paper PMC10307832

Experiments:
Test in all cases: relative viability (nuclei count vs DMSO), 5 days (fraction); higher = more cells survive
NCI-H2023 = tested on: NCI-H2023
How it was run: (§1)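 Dosing by pin tool came one day after lung cancer cell lines were seeded in 1536-well plates, using either one drug or a fixed anchor-drug dose plus five library-drug doses (not always all listed) in √10 steps. After 5 days, nuclei were counted on 4× images. Relative viability is treated-well nuclei count divided by vehicle-well nuclei count, and values are medians of duplicate plates.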

H3255 = tested on: H3255
How it was run: as §1

SK-LU-1 = tested on: SK-LU-1
How it was run: as §1

LXF-289 = tested on: LXF-289
How it was run: as §1

NCI-H2342 = tested on: NCI-H2342
How it was run: as §1

EMC-BAC-2 = tested on: EMC-BAC-2
How it was run: as §1

HOP-62 = tested on: HOP-62
How it was run: as §1

EPLC-272H = tested on: EPLC-272H
How it was run: as §1

NCI-H1993 = tested on: NCI-H1993
How it was run: as §1

NCI-H647 = tested on: NCI-H647
How it was run: as §1

SW 1573 = tested on: SW 1573
How it was run: as §1

PC-14 = tested on: PC-14
How it was run: as §1

NCI-H1650 = tested on: NCI-H1650
How it was run: as §1

NCI-H727 = tested on: NCI-H727
How it was run: as §1

NCI-H2126 = tested on: NCI-H2126
How it was run: as §1

LCLC-97TM1 = tested on: LCLC-97TM1
How it was run: as §1

NCI-H2347 = tested on: NCI-H2347
How it was run: as §1

NCI-H2009 = tested on: NCI-H2009
How it was run: as §1

NCI-H661 = tested on: NCI-H661
How it was run: as §1

NCI-H2085 = tested on: NCI-H2085
How it was run: as §1

NCI-H322M = tested on: NCI-H322M
How it was run: as §1

NCI-H1915 = tested on: NCI-H1915
How it was run: as §1

O=C(O)c1ccc(-c2c[nH]c3ncc(-c4ccccc4)cc23)cc1C1CCCC1 + CC(=O)Nc1cccc(-n2c(=O)n(C3CC3)c(=O)c3c(Nc4ccc(I)cc4F)n(C)c(=O)c(C)c32)c1 [Trametinib] (partner 0.02 µM)
relative viability (NCI-H2023; first compound 0.04 µM): 0.525
relative viability (NCI-H2023; first compound 0.1265 µM): 0.55
relative viability (NCI-H2023; first compound 0.4 µM): 0.618
relative viability (NCI-H2023; first compound 1.265 µM): 0.413
relative viability (H3255; first compound 0.04 µM): 0.587
relative viability (H3255; first compound 0.1265 µM): 0.689
relative viability (H3255; first compound 0.4 µM): 0.584
relative viability (H3255; first compound 1.265 µM): 0.625
relative viability (SK-LU-1; first compound 0.04 µM): 0.522
relative viability (SK-LU-1; first compound 0.1265 µM): 0.591
relative viability (SK-LU-1; first compound 0.4 µM): 0.513
relative viability (SK-LU-1; first compound 1.265 µM): 0.37
relative viability (LXF-289; first compound 0.04 µM): 0.625
relative viability (LXF-289; first compound 0.1265 µM): 0.685
relative viability (LXF-289; first compound 0.4 µM): 0.666
relative viability (LXF-289; first compound 1.265 µM): 0.535
relative viability (NCI-H2342; first compound 0.04 µM): 0.768
relative viability (NCI-H2342; first compound 0.1265 µM): 0.839
relative viability (NCI-H2342; first compound 0.4 µM): 0.906
relative viability (NCI-H2342; first compound 1.265 µM): 0.711
relative viability (EMC-BAC-2; first compound 0.04 µM): 0.903
relative viability (EMC-BAC-2; first compound 0.1265 µM): 0.976
relative viability (EMC-BAC-2; first compound 0.4 µM): 1.05
relative viability (EMC-BAC-2; first compound 1.265 µM): 0.973
relative viability (HOP-62; first compound 0.04 µM): 0.37
relative viability (HOP-62; first compound 0.1265 µM): 0.407
relative viability (HOP-62; first compound 0.4 µM): 0.412
relative viability (HOP-62; first compound 1.265 µM): 0.376
relative viability (EPLC-272H; first compound 0.04 µM): 0.307
relative viability (EPLC-272H; first compound 0.1265 µM): 0.27
relative viability (EPLC-272H; first compound 0.4 µM): 0.283
relative viability (EPLC-272H; first compound 1.265 µM): 0.276
relative viability (NCI-H1993; first compound 0.04 µM): 0.473
relative viability (NCI-H1993; first compound 0.1265 µM): 0.484
relative viability (NCI-H1993; first compound 0.4 µM): 0.42
relative viability (NCI-H1993; first compound 1.265 µM): 0.575
relative viability (NCI-H647; first compound 0.04 µM): 0.432
relative viability (NCI-H647; first compound 0.1265 µM): 0.477
relative viability (NCI-H647; first compound 0.4 µM): 0.478
relative viability (NCI-H647; first compound 1.265 µM): 0.389
relative viability (SW 1573; first compound 0.04 µM): 0.476
relative viability (SW 1573; first compound 0.1265 µM): 0.584
relative viability (SW 1573; first compound 0.4 µM): 0.439
relative viability (SW 1573; first compound 1.265 µM): 0.365
relative viability (PC-14; first compound 0.04 µM): 0.714
relative viability (PC-14; first compound 0.1265 µM): 0.75
relative viability (PC-14; first compound 0.4 µM): 0.703
relative viability (PC-14; first compound 1.265 µM): 0.688
relative viability (NCI-H1650; first compound 0.04 µM): 0.54
relative viability (NCI-H1650; first compound 0.1265 µM): 0.684
relative viability (NCI-H1650; first compound 0.4 µM): 0.758
relative viability (NCI-H1650; first compound 1.265 µM): 0.49
relative viability (NCI-H727; first compound 0.04 µM): 0.428
relative viability (NCI-H727; first compound 0.1265 µM): 0.428
relative viability (NCI-H727; first compound 0.4 µM): 0.379
relative viability (NCI-H727; first compound 1.265 µM): 0.428
relative viability (NCI-H2126; first compound 0.04 µM): 0.597
relative viability (NCI-H2126; first compound 0.1265 µM): 0.585
relative viability (NCI-H2126; first compound 0.4 µM): 0.562
relative viability (NCI-H2126; first compound 1.265 µM): 0.55
relative viability (LCLC-97TM1; first compound 0.04 µM): 0.202
relative viability (LCLC-97TM1; first compound 0.1265 µM): 0.204
relative viability (LCLC-97TM1; first compound 0.4 µM): 0.173
relative viability (LCLC-97TM1; first compound 1.265 µM): 0.207
relative viability (NCI-H2347; first compound 0.04 µM): 0.267
relative viability (NCI-H2347; first compound 0.1265 µM): 0.286
relative viability (NCI-H2347; first compound 0.4 µM): 0.311
relative viability (NCI-H2347; first compound 1.265 µM): 0.26
relative viability (NCI-H2009; first compound 0.04 µM): 0.261
relative viability (NCI-H2009; first compound 0.1265 µM): 0.311
relative viability (NCI-H2009; first compound 0.4 µM): 0.274
relative viability (NCI-H2009; first compound 1.265 µM): 0.224
relative viability (NCI-H661; first compound 0.04 µM): 0.585
relative viability (NCI-H661; first compound 0.1265 µM): 0.628
relative viability (NCI-H661; first compound 0.4 µM): 0.585
relative viability (NCI-H661; first compound 1.265 µM): 0.59
relative viability (NCI-H2085; first compound 0.04 µM): 0.508
relative viability (NCI-H2085; first compound 0.1265 µM): 0.488
relative viability (NCI-H2085; first compound 0.4 µM): 0.499
relative viability (NCI-H2085; first compound 1.265 µM): 0.384
relative viability (NCI-H322M; first compound 0.04 µM): 0.482
relative viability (NCI-H322M; first compound 0.1265 µM): 0.633
relative viability (NCI-H322M; first compound 0.4 µM): 0.524
relative viability (NCI-H322M; first compound 1.265 µM): 0.493
relative viability (NCI-H1915; first compound 0.04 µM): 0.293
relative viability (NCI-H1915; first compound 0.1265 µM): 0.313
relative viability (NCI-H1915; first compound 0.4 µM): 0.287
relative viability (NCI-H1915; first compound 1.265 µM): 0.289
